The assay addresses T1, Carbonic anhydrase (Saccharomyces cerevisiae S288c, UniProt P53615).
T1 sequence (P53615 whole entry): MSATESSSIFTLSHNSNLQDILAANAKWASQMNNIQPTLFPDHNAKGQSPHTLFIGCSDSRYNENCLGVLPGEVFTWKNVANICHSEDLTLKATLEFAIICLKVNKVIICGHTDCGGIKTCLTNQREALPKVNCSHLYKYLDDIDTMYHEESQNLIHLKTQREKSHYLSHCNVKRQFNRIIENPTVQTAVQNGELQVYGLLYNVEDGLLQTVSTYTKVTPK
Description: Inhibition of Saccharomyces cerevisiae recombinant CA expressed in Escherichia coli by stopped-flow CO2 hydrase assay
The Ki is a dissociation constant, usually derived from enzyme kinetics or from competition with a known ligand. Regarding `Nc1nnc(S(N)(=O)=O)s1`, the inhibition constant (Ki) came out at 447 nM.
On to `Nc1ccc(S(=O)(=O)NCc2ccc(S(N)(=O)=O)cc2)cc1`, for which the Ki was 166 nM.
As to `Nc1cc(Cl)c(S(N)(=O)=O)cc1S(N)(=O)=O`, the affinity, expressed as Ki, was 169 nM.
With `Nc1ccc(S(N)(=O)=O)cc1I`, the affinity, expressed as Ki, was 976 nM.
For `Nc1ccc(S(=O)(=O)Nc2nnc(S(N)(=O)=O)s2)cc1` the value was 124 nM; for `NS(=O)(=O)c1nnc(-c2ccccc2Cl)s1`, 565 nM.
For `Nc1nccc(Nc2ccc(S(N)(=O)=O)cc2)n1` the value was 15.1 nM; for `Nc1ccc(S(N)(=O)=O)cc1Br`, 248 nM.
Turning to `NS(=O)(=O)c1ccc(CCO)cc1`, the Ki is 7540 nM.
`Nc1ccc(S(N)(=O)=O)cc1F` displayed an inhibition constant (Ki) of 389 nM.
`NS(=O)(=O)c1ccc(CO)cc1` returned a Ki of 8970 nM.
For `NCCc1ccc(S(N)(=O)=O)cc1` the value was 163 nM; for `Nc1ccc(S(N)(=O)=O)cc1Cl`, 457 nM.
For the molecule `Nc1ccc(S(=O)(=O)NCCc2ccc(S(N)(=O)=O)cc2)cc1`, the Ki amounted to 154 nM.
`NS(=O)(=O)c1ccc(S(=O)(=O)Nc2cccc3c(Cl)c[nH]c23)cc1` showed an inhibition constant Ki of 133 nM.
Regarding `Nc1cc(C(F)(F)F)c(S(N)(=O)=O)cc1S(N)(=O)=O` [2,4-DISULFAMYLTRIFLUOROMETHYLANILINE], affinity was put at a Ki of 223 nM.
The result for `NS(=O)(=O)c1nnc(NS(=O)(=O)c2ccccc2)s1` [BENZOLAMIDE] reads 111 nM; that for `CCN[C@H]1CN(CCCOC)S(=O)(=O)c2sc(S(N)(=O)=O)cc21` [BRINZOLAMIDE], 114 nM.
`NS(=O)(=O)c1ccc(C(=O)O)cc1` [CARZENIDE] yielded an inhibitory constant (Ki) of 14500 nM. Compared with the last molecule, the Ki is about 130-fold higher.
`Cc1ccc(-c2cc(C(F)(F)F)nn2-c2ccc(S(N)(=O)=O)cc2)cc1` [CELECOXIB] registered an inhibition constant Ki of 108 nM.
Regarding `NCc1ccc(S(N)(=O)=O)cc1` [MAFENIDE], the affinity corresponds to a Ki of 433 nM.
`Cc1ccc(S(N)(=O)=O)cc1` [P-TOLUENESULFONAMIDE] returned an inhibition constant Ki of 16100 nM.
The result for `O=C1NS(=O)(=O)c2ccccc21` [SACCHARIN] reads 12500 nM; that for `Nc1ccc(S(N)(=O)=O)cc1` [SULFANILAMIDE], 18500 nM.
`CC1(C)O[C@@H]2[C@@H](CO[C@@]3(COS(N)(=O)=O)OC(C)(C)O[C@@H]23)O1` [TOPIRAMATE]: the inhibition constant (Ki) stood at 110 nM.

(Values after ChEMBL document CHEMBL1143347, “Carbonic anhydrase inhibitors: inhibition of the beta-class enzyme from the yeast Saccharomyces cerevisiae with sulfonamides and sulfamates” (Bioorg Med Chem, 2009).)
